Experimental data: patent US10932465B2, “Antimicrobial mixture containing 4-(3-ethoxy-4-hydroxyphenyl)butan-2-one and a diol, and cosmetic composition containing same” (L'OREAL, priority 2017, dated 2021)
Where a name gives a salt, the structure may show the parent alone.

Columns and labels:
[1] = test system: Aspergillus niger ATCC 6275; test: MIC / microbial growth test, 96-well microplate, optical density at 620 nm, with FIC index; type: cell-based
Description: FIC Index=([…]) with: • MICa with B: minimum concentration of product A in the combination A+B which makes it possible to obtain an inhibitory effect • MICb with A: minimum concentration of product B in the combination A+B which makes it possible to obtain an inhibitory effect. • MICa: minimum inhibitory concentration of product A alone. • MICb: minimum inhibitory concentration of product B alone. […] As regards the combinations tested, MICa with b and MICb with a are the respective concentrations of A and of B in the combinations which make it possible to obtain a microbial growth percentage of less than or equal to 25%. When the FIC index value is less than or equal to 1, it is considered that the combination of test compounds has a synergistic effect. The combinations of compounds A and B were tested on the following strains: Aspergillus niger and Candida albicans. […] A 96-well microplate and an incubation temperature of 32.5° C. are used. The incubation time of the microplate is: • from 24 hours to 48 hours aerobically for Aspergillus niger, • from 18 hours to 24 hours aerobically for Candida albicans. A 10% (weight/volume) stock solution was prepared by mixing 1 g of compound in 9 ml of aqueous 1%o agar solution. […] 50 μL of each of the daughter solutions obtained containing compound A or B1 or B2 are added to the microplate wells. 100 μL of Sabouraud liquid nutrient broth seeded with the strain Aspergillus niger and 50 μL of aqueous 1%o agar solution are also added thereto. 50 μL of each of the daughter solutions obtained containing compound A and 50 μL of each of the daughter solutions obtained containing compound B1 or B2 are added to the microplate wells. 100 μL of Sabouraud liquid nutrient broth seeded at double concentration with the strain Aspergillus niger are also added thereto. A positive microbial growth control was also prepared. […] This control corresponds to 100 μL of double concentration sterile Sabouraud liquid nutrient broth+100 μL of double concentration compound A or B1 or B2. […] In the two cases (test and control), the inoculum represents the concentration of the strain Aspergillus niger present in the final volume of the wells (200 μL) and is between 2 and 6×10^5 cfu/ml of Aspergillus niger.

[2] = test system: Candida albicans ATCC 10231; test: as above; type: cell-based
Description: FIC Index=([…]) with: • MICa with B: minimum concentration of product A in the combination A+B which makes it possible to obtain an inhibitory effect • MICb with A: minimum concentration of product B in the combination A+B which makes it possible to obtain an inhibitory effect. • MICa: minimum inhibitory concentration of product A alone. • MICb: minimum inhibitory concentration of product B alone. […] As regards the combinations tested, MICa with b and MICb with a are the respective concentrations of A and of B in the combinations which make it possible to obtain a microbial growth percentage of less than or equal to 25%. When the FIC index value is less than or equal to 1, it is considered that the combination of test compounds has a synergistic effect. The combinations of compounds A and B were tested on the following strains: Aspergillus niger and Candida albicans. […] A 96-well microplate and an incubation temperature of 32.5° C. are used. The incubation time of the microplate is: • from 24 hours to 48 hours aerobically for Aspergillus niger, • from 18 hours to 24 hours aerobically for Candida albicans. A 10% (weight/volume) stock solution was prepared by mixing 1 g of compound in 9 ml of aqueous 1%o agar solution. […] 50 μL of each of the daughter solutions obtained containing compound A or B1 or B2 are added to the microplate wells. 100 μL of Sabouraud liquid nutrient broth seeded with the strain Aspergillus niger and 50 μL of aqueous 1%o agar solution are also added thereto. 50 μL of each of the daughter solutions obtained containing compound A and 50 μL of each of the daughter solutions obtained containing compound B1 or B2 are added to the microplate wells. 100 μL of Sabouraud liquid nutrient broth seeded at double concentration with the strain Aspergillus niger are also added thereto. A positive microbial growth control was also prepared. […] This control corresponds to 100 μL of double concentration sterile Sabouraud liquid nutrient broth+100 μL of double concentration compound A or B1 or B2.

[3] = Aspergillus niger, growth <= 25%
[4] = Candida albicans, growth <= 25%

**Q.** Which microbial growth percentage ([1]; 0 A + 0.0025 B1 (weight %)) does the source give for `N=C(NCCCCCCNC(=N)NC(=N)Nc1ccc(Cl)cc1)NC(=N)Nc1ccc(Cl)cc1.O=C(O)[C@H](O)[C@@H](O)[C@H](O)[C@H](O)CO.O=C(O)[C@H](O)[C@@H](O)[C@H](O)[C@H](O)CO` [B1, chlorhexidine digluconate, reference compound] here?
**A.** Its microbial growth percentage is 98%.

**Q.** And the microbial growth percentage ([1]; 0 A + 0.005 B1 (weight %))?
**A.** Its microbial growth percentage is 98%.

**Q.** And the microbial growth percentage ([1]; 0 A + 0.01 B1 (weight %))?
**A.** The microbial growth percentage was 7%.

**Q.** And the “% MIC of B1 alone” value [1, 3]?
**A.** Its value is 0.01%.

**Q.** What about the microbial growth percentage ([2]; 0 A + 0.00025 B1 (weight %)) of the same compound?
**A.** Its microbial growth percentage is 59%.

**Q.** And the microbial growth percentage ([2]; 0 A + 0.0005 B1 (weight %))?
**A.** Its microbial growth percentage is 32%.

**Q.** What about the microbial growth percentage ([2]; 0 A + 0.001 B1 (weight %)) of the same compound?
**A.** Its microbial growth percentage is 3%.

**Q.** What about the “% MIC of B1 alone” value [2, 4] of the same compound?
**A.** Its value is 0.001%.

**Q.** Which microbial growth percentage ([1]; 0 A + 0.025 B2 (weight %)) does the source give for `[H]/N=C(\N/C(=N/[H])NCCCCCCNC(=N)NC(=N)Nc1ccc(Cl)cc1)Nc1ccc(Cl)cc1` [B2, chlorhexidine hydrochloride, reference compound] here?
**A.** The microbial growth percentage was 194%.

**Q.** What about the microbial growth percentage ([1]; 0 A + 0.05 B2 (weight %)) of the same compound?
**A.** The microbial growth percentage was 121%.

**Q.** What about the microbial growth percentage ([1]; 0 A + 0.1 B2 (weight %)) of the same compound?
**A.** The microbial growth percentage was 137%.

**Q.** What about the microbial growth percentage ([1]; 0 A + 0.2 B2 (weight %)) of the same compound?
**A.** Its microbial growth percentage is 2%.

**Q.** And the “% MIC of B2 alone” value [1, 3]?
**A.** The value was 0.02%.

**Q.** What about the microbial growth percentage ([2]; 0 A + 0.00025 B2 (weight %)) of the same compound?
**A.** The microbial growth percentage was 82%.

**Q.** What about the microbial growth percentage ([2]; 0 A + 0.0005 B2 (weight %)) of the same compound?
**A.** Its microbial growth percentage is 64%.

**Q.** And the microbial growth percentage ([2]; 0 A + 0.001 B2 (weight %))?
**A.** The microbial growth percentage was 14%.

**Q.** And the “% MIC of B2 alone” value [2, 4]?
**A.** Its value is 0.001%.

**Q.** What does the source list for `CCOc1cc(CCC(C)=O)ccc1O` [A, 4-(3-ethoxy-4-hydroxyphenyl)butan-2-one]?
**A.** microbial growth percentage ([1]; 0.025 A + 0 B2 (weight %)): 228%; microbial growth percentage ([1]; 0.05 A + 0 B2 (weight %)): 109%; microbial growth percentage ([1]; 0.0625 A + 0 B1 (weight %)): 83%; microbial growth percentage ([1]; 0.0625 A + 0 B3 (weight %)): 85%; microbial growth percentage ([1]; 0.1 A + 0 B2 (weight %)): 73%; microbial growth percentage ([1]; 0.125 A + 0 B1 (weight %)): 49%; microbial growth percentage ([1]; 0.125 A + 0 B3 (weight %)): 48%; microbial growth percentage ([1]; 0.2 A + 0 B2 (weight %)): 72%; microbial growth percentage ([1]; 0.25 A + 0 B1 (weight %)): 5%; microbial growth percentage ([1]; 0.25 A + 0 B3 (weight %)): 7%; microbial growth percentage ([1]; 0.4 A + 0 B2 (weight %)): 6%; % MIC of A alone ([1]; Aspergillus niger, series with B1, growth <= 25%): 0.25%; % MIC of A alone ([1]; Aspergillus niger, series with B2, growth <= 25%): 0.4%; % MIC of A alone ([1]; Aspergillus niger, series with B3, growth <= 25%): 0.25%; microbial growth percentage ([2]; 0.025 A + 0 B1 (weight %)): 63%; microbial growth percentage ([2]; 0.025 A + 0 B2 (weight %)): 83%; microbial growth percentage ([2]; 0.05 A + 0 B1 (weight %)): 47%; microbial growth percentage ([2]; 0.05 A + 0 B2 (weight %)): 70%; microbial growth percentage ([2]; 0.1 A + 0 B1 (weight %)): 22%; microbial growth percentage ([2]; 0.1 A + 0 B2 (weight %)): 50%; microbial growth percentage ([2]; 0.2 A + 0 B2 (weight %)): 10%; % MIC of A alone ([2]; Candida albicans, series with B1, growth <= 25%): 0.1%
